Counter-ions that a name gives are not always drawn. Like-named read-outs stand apart in the source and are kept apart here.
How the values were obtained:
Type in all cases: biochemical
[1] = target: T1, recombinant human VAP-1 (Homo sapiens, UniProt Q16853); test: Activity on recombinant human VAP-1, Amplex Red HRP-coupled hydrogen peroxide assay, benzylamine substrate; conditions: recombinant human VAP-1, benzylamine substrate, read-out: Inhibitory Activity (IC50, nM) human VAP-1
T1 construct: purchased R&D systems
T1 sequence (Q16853 1-763): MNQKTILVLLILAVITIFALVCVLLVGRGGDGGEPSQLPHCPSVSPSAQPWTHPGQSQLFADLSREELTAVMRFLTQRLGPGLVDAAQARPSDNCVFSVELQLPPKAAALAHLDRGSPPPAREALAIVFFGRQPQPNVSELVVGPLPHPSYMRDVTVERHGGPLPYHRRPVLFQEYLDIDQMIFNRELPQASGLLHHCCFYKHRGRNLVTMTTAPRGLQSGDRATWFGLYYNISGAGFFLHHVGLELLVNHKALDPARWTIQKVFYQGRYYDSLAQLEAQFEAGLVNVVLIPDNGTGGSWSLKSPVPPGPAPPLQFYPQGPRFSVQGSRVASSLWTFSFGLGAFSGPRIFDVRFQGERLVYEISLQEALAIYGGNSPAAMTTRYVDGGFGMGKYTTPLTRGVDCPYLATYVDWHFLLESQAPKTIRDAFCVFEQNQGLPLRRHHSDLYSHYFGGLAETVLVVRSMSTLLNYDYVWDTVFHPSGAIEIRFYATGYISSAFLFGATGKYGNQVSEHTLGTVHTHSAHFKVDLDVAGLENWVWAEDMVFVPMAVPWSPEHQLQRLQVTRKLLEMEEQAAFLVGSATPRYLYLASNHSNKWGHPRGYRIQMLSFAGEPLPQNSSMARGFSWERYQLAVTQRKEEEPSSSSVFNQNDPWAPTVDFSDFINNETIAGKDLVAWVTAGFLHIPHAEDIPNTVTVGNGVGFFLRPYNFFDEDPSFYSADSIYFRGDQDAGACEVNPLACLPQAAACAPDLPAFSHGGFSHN
In short: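 Enzyme in 50 mM sodium phosphate pH 7.4 preincubated with compound 30 min at 37 °C, then 1 mM benzylamine, 200 µM Amplex Red and 1 U/mL HRP added. H2O2-derived resorufin fluorescence (ex 544/em 590 nm) followed over 1–2 h; signal-rate decrease versus DMSO control, 8-point curve, four-parameter logistic IC50.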

[2] = target: T2, recombinant human MAO-A (monoamine oxidase-A) (Homo sapiens, UniProt P21397); test: Activity on recombinant human MAO-A, Amplex Red method, 0.5 mM tyramine substrate; conditions: read-out: Inhibitory Activity (IC50, nM) MAO-A
T2 construct: purchased Sigma-Aldrich
T2 sequence (P21397 1-527): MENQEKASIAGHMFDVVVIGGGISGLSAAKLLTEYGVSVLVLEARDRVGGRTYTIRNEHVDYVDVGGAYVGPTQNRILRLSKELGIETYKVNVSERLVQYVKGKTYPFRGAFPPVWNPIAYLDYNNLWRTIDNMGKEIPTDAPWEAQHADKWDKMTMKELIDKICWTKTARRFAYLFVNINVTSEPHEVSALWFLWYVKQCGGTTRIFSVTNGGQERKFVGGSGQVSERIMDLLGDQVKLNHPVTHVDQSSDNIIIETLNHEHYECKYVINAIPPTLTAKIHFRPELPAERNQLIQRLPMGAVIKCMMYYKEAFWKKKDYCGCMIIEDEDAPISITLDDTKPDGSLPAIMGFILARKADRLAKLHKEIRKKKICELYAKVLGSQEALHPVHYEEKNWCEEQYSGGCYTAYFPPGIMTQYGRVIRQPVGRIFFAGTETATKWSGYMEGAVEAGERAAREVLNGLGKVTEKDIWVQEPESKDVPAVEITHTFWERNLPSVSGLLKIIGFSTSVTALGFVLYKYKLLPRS
In short: (§1)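 Enzyme preincubated with compound 30 min at 37 °C in 50 mM sodium phosphate pH 7.4, final DMSO below 1%. Substrate was 0.5 mM tyramine for MAO-A and 1 mM benzylamine for MAO-B, with 200 uM Amplex Red and 1 U/mL HRP. H2O2-coupled resorufin fluorescence (ex 544/em 590) followed over 1–2 h; 8-point 4-parameter IC50.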

[3] = target: T3, recombinant human MAO-B (monoamine oxidase-B) (Homo sapiens, UniProt P27338); test: Activity on recombinant human MAO-B, Amplex Red method, 1 mM benzylamine substrate; conditions: read-out: Inhibitory Activity (IC50, nM) MAO-B
T3 construct: purchased Sigma-Aldrich
T3 sequence (P27338 1-520): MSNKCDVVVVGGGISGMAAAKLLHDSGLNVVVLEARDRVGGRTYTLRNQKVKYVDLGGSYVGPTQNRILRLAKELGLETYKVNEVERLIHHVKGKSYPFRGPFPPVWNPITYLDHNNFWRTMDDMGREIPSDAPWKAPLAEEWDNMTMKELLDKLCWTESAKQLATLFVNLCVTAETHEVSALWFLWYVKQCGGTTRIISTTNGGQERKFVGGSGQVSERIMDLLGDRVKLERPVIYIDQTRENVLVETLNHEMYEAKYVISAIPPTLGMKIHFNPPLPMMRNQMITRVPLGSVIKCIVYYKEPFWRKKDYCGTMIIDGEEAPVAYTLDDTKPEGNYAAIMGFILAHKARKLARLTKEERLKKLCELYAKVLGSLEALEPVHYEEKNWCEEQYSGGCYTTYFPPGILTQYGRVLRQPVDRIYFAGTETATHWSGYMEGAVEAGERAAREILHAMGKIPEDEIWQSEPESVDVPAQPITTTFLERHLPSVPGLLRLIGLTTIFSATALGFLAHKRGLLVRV
In short: as §1

[4] = target: T4, recombinant human DAO (diamine oxidase) (Homo sapiens, UniProt P19801); test: Activity on recombinant human DAO, Amplex Red method, 1 mM putrescine substrate; conditions: recombinant human DAO; for IC50: read-out: Inhibitory Activity (IC50, nM) DAO
T4 construct: purchased R&D systems
T4 sequence (P19801 20-751): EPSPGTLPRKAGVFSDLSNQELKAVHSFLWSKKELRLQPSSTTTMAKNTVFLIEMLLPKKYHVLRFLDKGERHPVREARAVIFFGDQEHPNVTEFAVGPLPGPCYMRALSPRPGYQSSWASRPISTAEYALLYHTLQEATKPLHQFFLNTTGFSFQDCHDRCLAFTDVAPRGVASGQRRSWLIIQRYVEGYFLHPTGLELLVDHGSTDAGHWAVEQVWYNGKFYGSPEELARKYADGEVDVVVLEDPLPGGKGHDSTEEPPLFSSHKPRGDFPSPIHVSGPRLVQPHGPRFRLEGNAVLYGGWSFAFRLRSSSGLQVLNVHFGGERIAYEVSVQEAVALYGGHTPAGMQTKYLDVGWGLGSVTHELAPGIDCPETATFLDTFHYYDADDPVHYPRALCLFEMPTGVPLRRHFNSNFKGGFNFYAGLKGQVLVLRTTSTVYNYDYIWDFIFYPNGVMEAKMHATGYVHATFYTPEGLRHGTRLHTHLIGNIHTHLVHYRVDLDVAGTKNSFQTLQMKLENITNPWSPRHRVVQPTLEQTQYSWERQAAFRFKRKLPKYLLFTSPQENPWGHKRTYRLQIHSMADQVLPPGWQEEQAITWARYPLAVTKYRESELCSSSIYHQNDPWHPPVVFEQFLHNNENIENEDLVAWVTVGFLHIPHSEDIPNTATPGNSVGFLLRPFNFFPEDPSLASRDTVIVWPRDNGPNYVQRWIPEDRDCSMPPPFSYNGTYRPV
In short: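 Inhibition of recombinant human DAO (diamine oxidase, R&D systems) was assessed with the Amplex Red Hydrogen Peroxide Assay Kit. Hydrogen peroxide produced from 1 mM putrescine was detected through an HRP-coupled reaction that converts Amplex Red into fluorescent resorufin, read at 544 nm excitation and 590 nm emission. IC50 values came from four-parameter logistic fits in GraphPad Prism.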

[5] = 1 mM putrescine, * = between 10 and 100 nM, ** = between 300 and 1000 nM

| SMILES | IC50 ([1]; 30 min preincubation at 37° C.) [nM] | IC50 ([2]; 0.5 mM tyramine) [nM] | IC50 ([3]; 1 mM benzylamine) [nM] | IC50 [4, 5] [nM] | IC50 [1] [nM] | IC50 ([2]; 0.5 mM tyramine substrate) [nM] | IC50 ([3]; 1 mM benzylamine substrate) [nM] | IC50 ([4]; 1 mM putrescine substrate) [nM] | Inhibitory Activity (IC50, nM) DAO [4, 5] |
| --- | --- | --- | --- | --- | --- | --- | --- | --- | --- |
| Cc1cc(-c2ccc(-c3nc[nH]n3)cc2)ncc1-n1cnn(C/C(=C/F)CN)c1=O [Example 121, 2-[(2E)-2-(aminomethyl)-3-fluoroprop-2-en-1-yl]-4-{4-methyl-6-[4-(1H-1,2,4-triazol-3-yl)phenyl]pyridin-3-yl}-2,4-dihydro-3H-1,2,4-triazol-3-one] | 0.7 | > 100000 | 456 | < 100 | – | – | – | – | – |
| NC/C(=C\F)Cn1ncn(-c2cc(C#Cc3cccnc3)ccn2)c1=O [Example 245, 2-[(2E)-2-(aminomethyl)-3-fluoroprop-2-en-1-yl]-4-[4-(pyridin-3-ylethynyl)pyridin-2-yl]-2,4-dihydro-3H-1,2,4-triazol-3-one hydrochloride] | – | – | – | – | 0.9 | > 100000 | 300 | 11 | – |
| Cc1cc(-c2ccc(-c3cnon3)cc2)cnc1-n1cnn(C/C(=C/F)CN)c1=O [Example 138, 2-[(2E)-2-(aminomethyl)-3-fluoroprop-2-en-1-yl]-4-{3-methyl-5-[4-(1,2,5-oxadiazol-3-yl)phenyl]pyridin-2-yl}-2,4-dihydro-3H-1,2,4-triazol-3-one hydrochloride] | 0.7 | 84000 | 1100 | 240 | – | – | – | – | – |
| NC/C(=C\F)Cn1ncn(-c2ncc(-c3ccc(-c4nnc[nH]4)cc3)s2)c1=O [Example 227, 2-[(2E)-2-(aminomethyl)-3-fluoroprop-2-en-1-yl]-4-{5-[4-(4H-1,2,4-triazol-3-yl)phenyl]-1,3-thiazol-2-yl}-2,4-dihydro-3H-1,2,4-triazol-3-one] | – | – | – | – | 0.61 | > 100000 | 164 | 0.24 | – |
| NC/C(=C\F)Cn1ncn(-c2cccc(-c3ccc(-c4cnon4)cc3)n2)c1=O [Example 177, 2-[(2E)-2-(aminomethyl)-3-fluoroprop-2-en-1-yl]-4-{6-[4-(1,2,5-oxadiazol-3-yl)phenyl]pyridin-2-yl}-2,4-dihydro-3H-1,2,4-triazol-3-one hydrochloride] | – | – | – | – | 0.5 | > 100000 | 1900 | 2.6 | – |
| NC/C(=C\F)Cn1ncn(-c2ccnc(-c3ccc4c(c3)OCO4)c2)c1=O [Example 209, 2-[(2E)-2-(aminomethyl)-3-fluoroprop-2-en-1-yl]-4-[2-(1,3-benzodioxol-5-yl)pyridin-4-yl]-2,4-dihydro-3H-1,2,4-triazol-3-one hydrochloride] | – | – | – | – | 0.63 | > 100000 | 17 | < 10 | – |
| CC(C)c1nc(-c2cccc(-c3cccc(-n4cnn(C/C(=C/F)CN)c4=O)c3)c2)no1 [Example 65, 2-[(2E)-2-(aminomethyl)-3-fluoroprop-2-en-1-yl]-4-{3′-[5-(propan-2-yl)-1,2,4-oxadiazol-3-yl]biphenyl-3-yl}-2,4-dihydro-3H-1,2,4-triazol-3-one hydrochloride] | 0.93 | > 100000 | > 10000 | < 30 | – | – | – | – | – |
| Cc1cc(-c2ccc3nonc3c2)cnc1-n1cnn(C/C(=C/F)CN)c1=O [Example 152, 2-[(2E)-2-(aminomethyl)-3-fluoroprop-2-en-1-yl]-4-[5-(2,1,3-benzooxadiazol-5-yl)-3-methylpyridin-2-yl]-2,4-dihydro-3H-1,2,4-triazol-3-one hydrochloride] | – | – | – | – | 0.5 | 7420 | 314 | 1300 | – |
| CC(=O)N1CCN(c2ccc(-c3cccc(-n4cnn(C/C(=C/F)CN)c4=O)c3)cc2)CC1 [Example 72, 4-[4′-(4-acetylpiperazine-1-yl)biphenyl-3-yl]-2-[(2E)-2-(aminomethyl)-3-fluoroprop-2-en-1-yl]-2,4-dihydro-3H-1,2,4-triazol-3-one hydrochloride] | 1.1 | 4890 | 1460 | 59 | – | – | – | – | – |
| Cc1c(-c2ccc3sc(N)nc3c2)cccc1-n1cnn(C/C(=C/F)CN)c1=O [Example 114, 4-[3-(2-amino-1,3-benzothiazol-5-yl)-2-methylphenyl]-2-[(2E)-2-(aminomethyl)-3-fluoroprop-2-en-1-yl]-2,4-dihydro-3H-1,2,4-triazol-3-one] | 3.1 | > 100000 | > 10000 | – | – | – | – | – | no inhibitory |
| NC/C(=C\F)Cn1ncn(-c2cccc(-c3ccc4nonc4c3)n2)c1=O [Example 195, 2-[(2E)-2-(aminomethyl)-3-fluoroprop-2-en-1-yl]-4-[6-(2,1,3-benzooxadiazol-5-yl)pyridin-2-yl]-2,4-dihydro-3H-1,2,4-triazol-3-one] | – | – | – | – | 0.66 | > 100000 | 620 | < 30 | – |
